Columns and labels:
Erysiphe graminis [1] = assay: in vivo effect against powdery mildew on sprayed plants (Example 5, Table V); details: triadimefon 50 WP, benomyl 50 WP, 6 days after infection
Procedure: (§1) The in vivo effect of various mixtures of triadimefon 50 WP and benomyl 50 WP was observed against powders mildew (Erysiphe graminis). The plants were grown in plots at 20° C., under a relative humidity of 98% for 7 days. The one-week old plant were then sprayed with the test composition and after drying were […] with Erysiphe graminis. After incubation for 6 days the results were evaluated.

Erysiphe graminis [2] = assay: in vivo effect against powdery mildew on sprayed plants (Example 6, Table VI); details: fenapronil 25 EC, benomyl 50 WP, 6 days after infection
Procedure: as §1
The procedure described in Example 5 was used but fenapronil 25 EC and benomyl 50 WP were tested. The following results have been obtained.

[3] = test system: lipid and sterol synthesis; details: mode of action; cited from earlier work
various fungi = assay: interaction / activity against various fungi in vitro, overall result in words; format: cell-based
[4] = test system: fungi which are sensitive to them; details: Fritz et al. 1977; cited from earlier work
[5] = test system: obligate parasites such as real powdery mildew, blight, rust; details: cited from earlier work

Structure (SMILES)	Extent of infection (Erysiphe graminis [1]; concentration 3%)	Extent of infection (Erysiphe graminis [1]; concentration 6%)	Extent of infection (Erysiphe graminis [1]; concentration 12%)	Extent of infection (Erysiphe graminis [2]; concentration 12 ppm)	Extent of infection (Erysiphe graminis [2]; concentration 25 ppm)	Extent of infection (Erysiphe graminis [2]; concentration 50 ppm)	inhibition of lipid and sterol synthesis [3]	activity alone (various fungi)	accumulation of fatty acids and triglycerides [4]	activity against obligate parasites [5]
CCCCNC(=O)n1c(NC(=O)OC)nc2ccccc21 [benomyl, methyl 1-(butylcarbamoyl)-2-benzimidazolecarbamate]	32.2%	23.3%	16.3%	78%	64%	56%	–	–	–	–
CCCCC(C#N)(Cn1ccnc1)c1ccccc1 (stereo not drawn) [fenapronil, 1H-α-butyl-α-phenylimidazol-1-yl-propanenitrile]	–	–	–	43%	23%	14%	inhibiting lipid and sterol synthesis	extremely potent alone and has a wide field of activity	–	–
CC(C)NC(=O)N1CC(=O)N(c2cc(Cl)cc(Cl)c2)C1=O [promidion, 3-(3,5-dichlorophenyl)-2,4-dioxo-1-(N-isopropyl)-imidazolinecarboxamide]	–	–	–	–	–	–	–	–	induce an accumulation of fatty acids and triglycerides	–
CC(C)(C)C(=O)C(Oc1ccc(Cl)cc1)n1cncn1 (stereo not shown) [triadimefon, 1-(4-chlorophenoxy)-3,3-dimethyl-1-(1H)-(1,2,4-triazol-1-yl)buthan-2-one]	73.5%	66.0%	40.6%	–	–	–	inhibiting lipid and sterol synthesis	entirely ineffective against the fungi tested in vitro	–	effective against obligate parasites such as real powdery mildew, blight, rust
C=CC1(C)OC(=O)N(c2cc(Cl)cc(Cl)c2)C1=O (stereo not shown) [vinclosolin, 3-(3,5-dichlorophenyl)-5-methyl-5-vinyl-1,3-oxazolidine-2,4-dione]	–	–	–	–	–	–	–	–	induce an accumulation of fatty acids and triglycerides	–
